{"source": "patent US20130337052A1", "about": "“System and Method of Reducing Impairment of Alertness, Concentration, Motivation, and Creativity Caused by Medication” (priority 2012, published 2013)", "key": {"CB1 receptors": {"target": "CB1 receptors (Homo sapiens, UniProt P21554)", "sequence (P21554 whole entry)": "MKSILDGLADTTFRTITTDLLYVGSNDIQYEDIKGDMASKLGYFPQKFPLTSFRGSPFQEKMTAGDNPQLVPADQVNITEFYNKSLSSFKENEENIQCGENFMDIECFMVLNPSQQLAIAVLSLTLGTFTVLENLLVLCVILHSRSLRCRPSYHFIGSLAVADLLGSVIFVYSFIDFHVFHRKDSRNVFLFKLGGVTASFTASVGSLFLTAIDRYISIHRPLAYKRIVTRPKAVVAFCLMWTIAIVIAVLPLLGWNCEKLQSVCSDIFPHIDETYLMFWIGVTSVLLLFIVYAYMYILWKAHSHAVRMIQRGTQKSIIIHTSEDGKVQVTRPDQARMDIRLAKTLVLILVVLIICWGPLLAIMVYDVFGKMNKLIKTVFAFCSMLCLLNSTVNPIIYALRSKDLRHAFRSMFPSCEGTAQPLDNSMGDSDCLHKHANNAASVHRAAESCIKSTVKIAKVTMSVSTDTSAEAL", "conditions": "relative to THC; cited from earlier work"}, "CB2 receptors": {"target": "CB2 receptors (Homo sapiens, UniProt P34972)", "sequence (P34972 whole entry)": "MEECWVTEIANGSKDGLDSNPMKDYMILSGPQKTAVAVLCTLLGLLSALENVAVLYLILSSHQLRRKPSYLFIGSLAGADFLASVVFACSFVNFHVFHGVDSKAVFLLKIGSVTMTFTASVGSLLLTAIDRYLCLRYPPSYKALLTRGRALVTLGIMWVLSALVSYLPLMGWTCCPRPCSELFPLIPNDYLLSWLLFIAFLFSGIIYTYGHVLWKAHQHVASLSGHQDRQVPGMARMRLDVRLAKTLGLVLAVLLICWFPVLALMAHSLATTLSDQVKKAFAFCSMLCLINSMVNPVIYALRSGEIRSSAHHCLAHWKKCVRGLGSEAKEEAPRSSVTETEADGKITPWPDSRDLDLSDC", "conditions": "relative to THC; cited from earlier work"}, "[1]": {"experiment": "Side effects reported by patients using a medication containing THC", "format": "in vivo, human", "conditions": "e.g. Marinol", "source_text": "Patients using cannabinoid medications 10 prescribed for the treatment of symptoms such as pain and experiencing the undesirable side effects of the cannabinoid medications may provide relief through the administration of lithium compounds 30. […] Patients also reported a lack of motivation and a reduction in creativity while taking the medication. As a result, the patients have been unable or unwilling to perform ordinary tasks, such as, e.g., tasks associated with the patient's employment. However, upon treatment with lithium compounds 30, the alertness, concentration, motivation, and creativity of the patients were restored. As a result, the patients were able to continue to work productively while using the cannabinoid-based medication."}, "[2]": {"conditions": "patients received up to 210 milligrams per day; cited from earlier work"}, "[3]": {"conditions": "lithium citrate syrup compared to lithium carbonate tablets; cited from earlier work"}, "[4]": {"conditions": "150 milligrams per day; cited from earlier work"}}, "data": [{"smiles": "CCCCCc1cc(O)c2c(c1)OC(C)(C)c1ccc(C)cc1-2", "note": "[CBN, cannabinol]", "values": [{"measurement": "agonist effect on the CB1 receptor compared with THC", "setting": "CB1 receptors", "value": "weaker agonist effect"}, {"measurement": "agonist effect on the CB2 receptor compared with THC", "setting": "CB2 receptors", "value": "weaker agonist effect"}]}, {"smiles": "CCCCCc1cc(O)c2c(c1)OC(C)(C)[C@@H]1CCC(C)=C[C@@H]21", "note": "[THC, (−)-trans-Δ9-tetrahydrocannabinol]", "values": [{"measurement": "side effects experienced by patients", "setting": "[1]", "value": "difficulty staying awake and maintaining concentration"}, {"measurement": "toxic effects in clinical studies", "setting": "[2]", "value": "without toxic effects"}]}, {"smiles": "O=C([O-])CC(O)(CC(=O)[O-])C(=O)[O-].[Li+].[Li+].[Li+]", "note": "[lithium citrate]", "values": [{"measurement": "rate at which lithium enters the body", "setting": "[3]", "value": "more rapidly"}]}, {"smiles": "O=C([O-])c1cc(=O)[nH]c(=O)[nH]1.[Li+]", "note": "[lithium orotate]", "values": [{"measurement": "effect in the treatment of alcohol addiction", "setting": "[4]", "value": "beneficial"}]}]}
